pIC50: −log10 of the molar value. Activity calls are given as the source filed them. The rule behind the calls is not given here.
Experiments:
[1] = tested on: A2780; assay: Antiproliferative activity against human A2780 cells after 2 days by Alamar Blue assay; format: functional, cell-based; conditions: for pIC50: A2780, 48 h
[2] = tested on: Plasmodium falciparum; assay: Antimalarial activity against chloroquine/mefloquine-resistant Plasmodium falciparum Dd2 after 72 hrs by SYBR Green I assay; format: functional; conditions: Dd2, 72 h

| Compound | pIC50 [1] | pIC50 [2] | Activity [1] |
| --- | --- | --- | --- |
| COc1ccc(/C=C2\COc3cc(O)ccc3C2=O)cc1 [BONDUCELLIN] | 4.97 | 4.59 | – |
| COc1cc(/C=C/c2cc(O)cc(O)c2)ccc1O | – | – | Active |
| COC1=CC(=O)c2c(O)c(C(C)=O)c(C)c(O)c2C1=O | 5.09 | 4.62 | – |
| COc1cc(O)cc(/C=C/c2ccc(O)c(O)c2)c1 | 4.27 | 4.57 | – |
| Oc1cc(O)cc(/C=C/c2ccc(O)c(O)c2)c1 [PICEATANNOL] | 4.39 | – | – |
| C[C@@H]1CC[C@H]2[C@@H](C)C(=O)O[C@@H]3O[C@@]4(C)CC[C@@H]1[C@]32OO4 [ARTEMISININ] | – | 8.15 | – |
| Oc1ccc(/C=C/c2cc(O)cc(O)c2)cc1 [RESVERATROL] | 4.13 | – | – |
| CC(=O)O[C@H]1C(=O)[C@@]2(C)[C@H]([C@H](OC(=O)c3ccccc3)[C@]3(O)C[C@H](OC(=O)[C@H](O)[C@@H](NC(=O)c4ccccc4)c4ccccc4)C(C)=C1C3(C)C)[C@]1(OC(C)=O)CO[C@@H]1C[C@@H]2O [PACLITAXEL] | 7.62 | – | – |
